Assay results taken from patent US8178579B2, “Dioxanes and uses thereof” (President and Fellows of Harvard College, priority 2001, dated 2012).
“Also recorded” adds a separate entry of the source.

What was measured:
HT-1080 cells = experiment: F-actin staining by fluorescence microscopy; assay type: cell-based; conditions: human fibrosarcoma cells, 20 μM, 39 h
Procedure: Detection of acetylated α-tubulin and acetylated histones by immunofluorescence was performed as described in Example 6 above. For determining microtubule stability, A549 cells were treated as indicated, fixed in glutaraldehyde, and stained for acetylated α-tubulin and total α-tubulin in antibody dilution buffer (ADB, Tris-buffered saline (TBS), 0.15 M NaCl, 0.02 M Tris-Cl, pH 7.4, with 2% bovine serum albumin and 0.1% Triton-X 100). For cold-depolymerization, cells were incubated at 4° C. or 37° C. for an additional 90 minutes before fixation. […] For co-localization experiments, biotubacin (50 μM) treated A549 cells were fixed in 3.7% formaldehyde in TBS and processed as for detecting acetylated α-tubulin (See Example 6 above) with biotubacin detected using streptavidin-TR (1:500). HDAC6 was detected using a rabbit polyclonal antibody (1:250-1:750; C.M.G., unpublished data) under the conditions used to detect acetylated α-tubulin (See Example 6 above). Filamentous actin in HT-1080 cells was detected using TR-conjugated phalloidin (1 μg/mL), and depolymerized actin using FITC-conjugated deoxyribonuclease (10 μg/mL), following fixation in 3.7% formaldehyde in TBS. p58 (1:100) in NIH-3T3 cells was detected after fixation in 3.7% formaldehyde in TBS. […]

[1] = system: microtubules in A549 cells; experiment: microtubule stability to nocodazole, cold or calcium depolymerization and repolymerization; assay type: cell-based, human; conditions: tubacin 2 μM
Procedure: Detection of acetylated α-tubulin and acetylated histones by immunofluorescence was performed as described in Example 6 above. For determining microtubule stability, A549 cells were treated as indicated, fixed in glutaraldehyde, and stained for acetylated α-tubulin and total α-tubulin in antibody dilution buffer (ADB, Tris-buffered saline (TBS), 0.15 M NaCl, 0.02 M Tris-Cl, pH 7.4, with 2% bovine serum albumin and 0.1% Triton-X 100). For cold-depolymerization, cells were incubated at 4° C. or 37° C. for an additional 90 minutes before fixation. For calcium depolymerization, cells were incubated at 37° C. for 10 minutes in a microtubule-stabilizing buffer (0.2% NP-40, 5 mM MgCl2, 2 mM EGTA, 2 M glycerol, 100 mM PIPES, pH 6.8) with and without the addition of CaCl2 (2 mM) before glutaraldehyde fixation. For co-localization experiments, biotubacin (50 μM) treated A549 cells were fixed in 3.7% formaldehyde in TBS and processed as for detecting acetylated α-tubulin (See Example 6 above) with biotubacin detected using streptavidin-TR (1:500). HDAC6 was detected using a rabbit polyclonal antibody (1:250-1:750; C.M.G., unpublished data) under the conditions used to detect acetylated α-tubulin (See Example 6 above). Filamentous actin in HT-1080 cells was detected using TR-conjugated phalloidin (1 μg/mL), and depolymerized actin using FITC-conjugated deoxyribonuclease (10 μg/mL), following fixation in 3.7% formaldehyde in TBS. p58 (1:100) in NIH-3T3 cells was detected after fixation in 3.7% formaldehyde in TBS. Images for these experiments were collected on a Zeiss LSM510 confocal scanning laser microscope at the appropriate wavelengths using the accompanying software and processed with Adobe Photoshop. Deconvoluted serial images of TSA and DMSO treated A549 cells were obtained by taking sections (8μ) on a Zeiss Axioskop 2 microscope using an AxioCam camera and the accompanying software. Rat hippocampal neuronal cultures were fixed at room temperature for 15 min in phosphate-buffered saline (PBS) containing 4% paraformaldehyde. […]

NIH-3T3 cells = experiment: Transwell cell migration assay; assay type: cell-based, mouse; conditions: wild-type (Neo) and HDAC6-overexpressing cells, 22 h; tubacin 2-20 μM, niltubacin 20 μM
Procedure: For Transwell migration assays, wild-type or HDAC6 overexpressing NIH-3T3 cells were seeded (150,000 cells/well) in the upper chamber (uncoated polycarbonate membrane, 6.5 mm, 8 μm) in DMEM+ media with compounds added as indicated. After incubation (22 hours), non-migrated cells were removed using cotton swabs and remaining cells stained in Harris Hematoxylin solution. For each treatment, cells within a region (spanning the maximum diameter) of three separate membranes were counted under low magnification on a Leitz Laborlux microscope. For DMSO treatments the average count was ˜600 cells/region. Images were obtained using a Hitachi HV-C12 CCD camera.

HDAC6 = target: T1, HDAC6 (Homo sapiens, UniProt Q9UBN7); experiment: in vitro enzyme inhibition assay (Fluor de Lys deacetylation) of HDAC1, 4 and 6; assay type: biochemical; parameters: endogenous in cells; host or cells: A549 cells; conditions: in vitro enzyme inhibition (FIG. 13)
T1 sequence (Q9UBN7 1-1215): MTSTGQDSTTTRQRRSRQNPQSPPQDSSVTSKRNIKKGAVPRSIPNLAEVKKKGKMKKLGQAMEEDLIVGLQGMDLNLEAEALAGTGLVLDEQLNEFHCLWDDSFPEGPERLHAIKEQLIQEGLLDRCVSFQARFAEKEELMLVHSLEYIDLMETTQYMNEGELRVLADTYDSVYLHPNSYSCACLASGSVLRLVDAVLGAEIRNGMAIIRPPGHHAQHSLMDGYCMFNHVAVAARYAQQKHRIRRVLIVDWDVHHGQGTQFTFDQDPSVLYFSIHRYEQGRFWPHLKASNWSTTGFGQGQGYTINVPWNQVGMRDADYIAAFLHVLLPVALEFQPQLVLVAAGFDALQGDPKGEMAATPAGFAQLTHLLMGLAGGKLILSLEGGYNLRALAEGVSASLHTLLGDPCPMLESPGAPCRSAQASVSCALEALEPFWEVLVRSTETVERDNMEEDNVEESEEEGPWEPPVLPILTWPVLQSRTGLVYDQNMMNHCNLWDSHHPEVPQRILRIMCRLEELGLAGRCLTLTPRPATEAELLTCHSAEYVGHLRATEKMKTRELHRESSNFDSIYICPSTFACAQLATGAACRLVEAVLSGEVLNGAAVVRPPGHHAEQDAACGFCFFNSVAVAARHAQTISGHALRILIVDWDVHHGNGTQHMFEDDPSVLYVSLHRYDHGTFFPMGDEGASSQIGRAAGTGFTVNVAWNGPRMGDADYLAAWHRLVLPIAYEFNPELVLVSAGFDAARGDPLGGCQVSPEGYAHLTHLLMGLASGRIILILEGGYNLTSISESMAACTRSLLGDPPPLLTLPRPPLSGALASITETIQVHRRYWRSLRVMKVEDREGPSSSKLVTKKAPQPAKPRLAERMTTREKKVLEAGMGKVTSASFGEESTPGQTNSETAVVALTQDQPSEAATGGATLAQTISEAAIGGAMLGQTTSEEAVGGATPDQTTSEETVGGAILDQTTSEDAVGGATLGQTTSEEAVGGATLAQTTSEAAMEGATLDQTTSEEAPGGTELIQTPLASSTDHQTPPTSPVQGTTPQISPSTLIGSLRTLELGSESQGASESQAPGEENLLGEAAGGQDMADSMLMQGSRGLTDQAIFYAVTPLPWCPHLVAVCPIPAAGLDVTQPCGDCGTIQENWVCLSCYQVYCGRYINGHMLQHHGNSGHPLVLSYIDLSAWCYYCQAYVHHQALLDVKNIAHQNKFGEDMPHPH

- selectivity for HDAC6 over HDAC1 and HDAC4 (HDAC6): 3 fold
SMILES: O=C(CCCCCCC(=O)Nc1ccc([C@@H]2OC(c3ccc(CO)cc3)C[C@H](CSc3nc(-c4ccccc4)c(-c4ccccc4)o3)O2)cc1)NO (some centres unmarked) [tubacin]
- F-actin microfilaments / actin stress fibers (HT-1080 cells): increases F-actin microfilaments; also recorded: caused an increase in the abundance of actin stress fibers
- polymerization of microtubules after removal of nocodazole ([1]; ITSA1 50 μM): neither tubacin nor ITSA1 (50 μM; 30 minutes) prevents the repolymerization of microtubules; also recorded: neither tubacin nor ITSA1 prevented the polymerization of microtubules
- stability of microtubules to depolymerization ([1]; nocodazole 332 nM, cold 4 °C 90 min, or 2 mM CaCl2): No effect of tubacin (2 μM) pre-treatment (4 h) on the stability of microtubules to nocodazole; also recorded: Microtubule depolymerization by nocodazole (332 nM; 5 h) is dominant to the effects of tubacin; also recorded: No effect of tubacin on the stability of microtubules to cold-depolymerization; also recorded: no stabilization of microtubules to any of the depolymerizing conditions tested
- cell migration (NIH-3T3 cells): inhibited the migration of wild-type (Neo) NIH-3T3 cells; also recorded: inhibited the migration of both wild-type and HDAC6-overexpressing cells
